# Experiments:
# [1] = tested on: T47D cells; assay: Cell-based assay: anti-proliferative activity, Cell Counting Kit-8, 72 hours (T47D); settings: Homo sapiens, T47D, 72 h
# Summary of the method: (§1)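 Proliferation read with Cell Counting Kit-8 after 72 hours of inhibitor treatment, from seeding of 2,000–3,000 cells/well. Lines: T47D, A549, BT-549; HT-1197, lacking MELK by western blot, served as negative control. IC50 derived.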
# [2] = tested on: DU4475 cells; assay: Cell-based assay: anti-proliferative activity, Cell Counting Kit-8, 72 hours (DU4475); settings: Homo sapiens, DU-4475, 72 h
# [3] = target: MELK (Homo sapiens, UniProt Q14680); assay: Kinase assay: MELK activity, phosphorylation of FITC-labeled histone H3 peptide measured by IMAP fluorescence polarization; format: biochemical; settings: read-out: IC50 (μM) (kinase assay)
# MELK, sequence (Q14680 whole entry, looked up): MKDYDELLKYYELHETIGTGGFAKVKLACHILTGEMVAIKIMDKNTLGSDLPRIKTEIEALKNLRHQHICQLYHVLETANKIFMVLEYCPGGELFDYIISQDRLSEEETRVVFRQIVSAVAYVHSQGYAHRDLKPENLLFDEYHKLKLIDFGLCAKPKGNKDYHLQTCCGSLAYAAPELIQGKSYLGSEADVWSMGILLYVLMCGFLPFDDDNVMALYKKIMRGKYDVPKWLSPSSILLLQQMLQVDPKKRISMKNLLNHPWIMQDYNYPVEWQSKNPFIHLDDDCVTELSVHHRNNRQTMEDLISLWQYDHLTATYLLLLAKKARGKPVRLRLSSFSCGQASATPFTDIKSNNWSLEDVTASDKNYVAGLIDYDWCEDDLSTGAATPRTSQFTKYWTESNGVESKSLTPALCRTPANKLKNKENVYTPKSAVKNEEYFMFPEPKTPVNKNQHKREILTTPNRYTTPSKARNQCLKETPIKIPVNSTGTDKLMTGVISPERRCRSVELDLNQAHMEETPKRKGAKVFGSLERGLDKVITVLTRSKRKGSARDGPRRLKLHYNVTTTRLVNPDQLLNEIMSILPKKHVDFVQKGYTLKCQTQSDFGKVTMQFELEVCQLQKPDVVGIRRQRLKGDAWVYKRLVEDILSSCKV
# Summary of the method: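 Fluorescence polarization was measured 0.5 h (room temperature) after quenching with threefold volume of progressive binding solution. Test compounds from 12.5 mM DMSO stocks were assayed at 1% DMSO.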
# [4] = tested on: HT-1197 cells; assay: Cell-based assay: anti-proliferative activity, Cell Counting Kit-8, 72 hours (HT-1197, negative control without MELK expression); settings: Homo sapiens, HT1197, 72 h, HT1197 cells (negative control, no MELK expression), 72 hours
# Summary of the method: as §1
# [5] = tested on: A549 cells; assay: Cell-based assay: anti-proliferative activity, Cell Counting Kit-8, 72 hours (A549); settings: Homo sapiens, A549, 72 h, 72 hours
# Summary of the method: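 A549 cells were seeded in 96-well plates and exposed to candidate inhibitors for 72 hours. Cell growth was then measured with Cell Counting Kit-8, and IC50 values were calculated from the resulting growth data.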
SMILES,IC50 [1],IC50 [2],IC50 [3],IC50 [4],IC50 [5]
"CN(C)CCOc1ccc(Nc2c(C(=O)C3CC3)cnc3ccc(-c4cc(F)c(O)c(Cl)c4)cc23)cn1 [Example 710, (6-(3-Chloro-5-fluoro-4-hydroxyphenyl)-4-(6-(2-(dimethylamino)ethoxy)pyridin-3-ylamino)quinolin-3-yl)(cyclopropyl)methanone]",0.15 µM,0.083 µM,0.0069 µM,2 µM,0.09 µM
"CC(=O)c1cnc2ccc(-c3cc(Cl)c(O)c(Cl)c3)cc2c1Nc1ccc2c(c1)CCC2N(C)C (stereo not shown) [Example 720, 1-(6-(3,5-dichloro-4-hydroxyphenyl)-4-((1-(dimethylamino)-2,3-dihydro-1H-inden-5-yl)amino)quinolin-3-yl)ethanone]",0.059 µM,0.032 µM,0.0033 µM,0.38 µM,0.063 µM
"COc1cc(-c2ccc3ncc(C(=O)C4CC4)c(Nc4ccc(NC5CCNC5)nc4)c3c2)cc(Cl)c1O (stereo not shown) [Example 665, (6-(3-chloro-4-hydroxy-5-methoxyphenyl)-4-(6-(pyrrolidin-3-ylamino)pyridin-3-ylamino)quinolin-3-yl)(cyclopropyl)methanone]",0.16 µM,0.22 µM,0.0033 µM,3.7 µM,0.53 µM
"COc1cc(-c2ccc3ncc(C(=O)C4CC4)c(Nc4ccc(OCCN(C)C)nc4)c3c2)cc(Cl)c1O [Example 712, (6-(3-chloro-4-hydroxy-5-methoxyphenyl)-4-(6-(2-(dimethylamino)ethoxy)pyridin-3-ylamino)quinolin-3-yl)(cyclopropyl)methanone]",0.31 µM,0.34 µM,0.0036 µM,5.4 µM,0.31 µM
"COc1cc(-c2ccc3ncc(C(=O)C4CC4)c(Nc4ccc(CN5CCC(N(C)C)C5)cc4)c3c2)cc(Cl)c1O (stereo not shown) [Example 697, (6-(3-chloro-4-hydroxy-5-methoxyphenyl)-4-(4-((3-(dimethylamino)pyrrolidin-1-yl)methyl)phenylamino)quinolin-3-yl)(cyclopropyl)methanone]",0.81 µM,0.64 µM,0.0084 µM,1.8 µM,0.44 µM
"COc1cc(-c2ccc3ncc(C(=O)C4CC4)c(Nc4ccc(N5CCC(O)C5)nc4)c3c2)cc(Cl)c1O (stereo not shown) [Example 669, (6-(3-chloro-4-hydroxy-5-methoxyphenyl)-4-(6-(3-hydroxypyrrolidin-1-yl)pyridin-3-ylamino)quinolin-3-yl)(cyclopropyl)methanone]",0.24 µM,0.75 µM,0.012 µM,4.4 µM,0.46 µM
"COc1cc(-c2ccc3ncc(C(=O)C4CC4)c(NC4CCC(N5CCC(OC)C5)CC4)c3c2)cc(Cl)c1O (stereo not shown) [Example 687, (6-(3-chloro-4-hydroxy-5-methoxyphenyl)-4-(4-(3-methoxypyrrolidin-1-yl)cyclohexylamino)quinolin-3-yl)(cyclopropyl)methanone]",0.63 µM,0.33 µM,0.0033 µM,3.3 µM,0.45 µM
CN(CCO)C[C@H]1CC[C@H](Nc2c(C(=O)C3CC3)cnc3ccc(-c4cc(Cl)c(O)c(Cl)c4)cc23)CC1 [Example 634],0.099 µM,0.042 µM,0.0008 µM,0.75 µM,0.095 µM
CC(=O)c1cnc2ccc(-c3cc(Cl)c(O)c(Cl)c3)cc2c1Nc1ccc(N2CCNCC2)nc1 [Example 702],0.046 µM,0.044 µM,0.0014 µM,2.4 µM,0.14 µM
"CN1CCN(Cc2ccc(Nc3c(C(=O)C4CC4)cnc4ccc(-c5cc(F)c(O)c(Cl)c5)cc34)cn2)CC1 [Example 684, (6-(3-chloro-5-fluoro-4-hydroxyphenyl)-4-(6-((4-methylpiperazin-1-yl)methyl)pyridin-3-ylamino)quinolin-3-yl)(cyclopropyl)methanone]",0.88 µM,0.82 µM,0.05 µM,15 µM,1.5 µM
"CNC[C@H]1CC[C@H](Nc2c(C(=O)C3CC3)cnc3ccc(-c4cc(Cl)c(O)c(Cl)c4)cc23)CC1 [Example 685, cyclopropyl(6-(3,5-dichloro-4-hydroxyphenyl)-4-((trans-4-((methylamino)methyl)cyclohexyl)amino)quinolin-3-yl)methanone]",0.054 µM,0.018 µM,0.0016 µM,0.73 µM,0.14 µM

# From patent US9120749B2, “Quinoline derivatives and MELK inhibitors containing the same” (ONCOTHERAPY SCIENCE, INC., priority 2010, dated 2015)
